Data on one compound can be found in patent US4360665A, “4"-N-(Substituted)-apramycin antibiotic derivatives and intermediates therefor” (Eli Lilly and Company, priority 1981, dated 1982).

What all share (experiment): MIC by standard agar dilution test
Holding throughout (type): cell-based

Assay [1] relates to Staphylococcus aureus S13E. The conditions noted are these: read-out: Minimum Inhibitory Concentration. From the text: (§1) The antibacterial activity of the antibiotic compounds of this invention is illustrated by the following in vitro and in vivo test data obtained with representative compounds. In Tables I and II, the minimum inhibitory concentration (MIC) for representative compounds against a wide range of gram-positive and gram-negative bacteria are presented. The MIC values were obtained by the standard agar dilution test.

The subject of the next assay is Serratia marcescens SE3.
Description: as §1

A further assay relates to Escherichia coli N10. The conditions noted are these: Table 1, read-out: Minimum Inhibitory Concentration.
Description: as §1

In assay [2] the test system is Haemophilus influenzae R252. The conditions noted are these: Table 1; Haemophilus influenzae R252; agar dilution; read-out: Minimum Inhibitory Concentration.
Description: as §1
A general note: In agar dilution the substance is mixed into plates at graded concentrations.

The subject of assay [3] is Salmonella heidelberg X514. The conditions noted are these: Salmonella enterica, Table 1, read-out: Minimum Inhibitory Concentration.
Description: as §1

The test system of assay [4] is Citrobacter freundii CF17. The conditions noted are these: Table 1, read-out: Minimum Inhibitory Concentration.
Description: as §1

The test system of assay [5] is Klebsiella pneumoniae KL2. The conditions noted are these: Table II, read-out: Minimum Inhibitory Concentration.
Description: as §1

Another assay deals with Proteus morganii PR1. To be noted: Morganella morganii, Table II, read-out: Minimum Inhibitory Concentration.
Description: as §1

For a further assay, the system named is Proteus rettgeri C24. The conditions noted are these: Providencia rettgeri, Table 1, read-out: Minimum Inhibitory Concentration.
Description: as §1

For assay [6], the system named is Enterobacter cloacae EB24. The conditions noted are these: Table II; Enterobacter cloacae EB24; agar dilution; read-out: Minimum Inhibitory Concentration.
Description: as §1

Another assay concerns Proteus inconstans PR33. To be noted: Providencia alcalifaciens, Table 1, read-out: Minimum Inhibitory Concentration.
Description: as §1

Assay [7] has as its system Enterobacter aerogenes X68. To be noted: Klebsiella aerogenes, Table 1, read-out: Minimum Inhibitory Concentration.
Description: as §1

Molecules are shown by their SMILES. In brackets after ≈: the same amount, converted by molar mass. Where two headings read alike, the source gives them in different places.

With `CN[C@@H]1[C@@H](O[C@H]2O[C@H](CO)[C@@H](NC(C)=O)[C@H](O)[C@H]2O)O[C@H]2C[C@@H](N)[C@@H](O[C@H]3[C@H](O)[C@@H](O)[C@H](N)C[C@@H]3N)O[C@@H]2[C@@H]1O` [Test Compound 1, 4"-N-Acetylapramycin], the MIC in [1] is 64 µg/mL (≈ 110 µM); in the assay with Serratia marcescens SE3 (SE3, Table 1, read-out: Minimum Inhibitory Concentration), 32 µg/mL (≈ 55 µM); with Serratia marcescens SE3 (SE3, Table II, read-out: Minimum Inhibitory Concentration), 8 µg/mL (≈ 13.8 µM); with Escherichia coli N10, 32 µg/mL (≈ 55 µM); in [2] it was 16 µg/mL (≈ 27.5 µM); in [3], 32 µg/mL (≈ 55 µM). For the same compound, the MIC in assay [4] was found to be 32 µg/mL (≈ 55 µM); in [5] it was 8 µg/mL (≈ 13.8 µM); in the assay with Proteus morganii PR1, 8 µg/mL (≈ 13.8 µM); in the assay on Proteus rettgeri C24, 32 µg/mL (≈ 55 µM); in assay [6], 8 µg/mL (≈ 13.8 µM); in the assay with Proteus inconstans PR33, 16 µg/mL (≈ 27.5 µM). For the same compound, in assay [7], the MIC was 16 µg/mL (≈ 27.5 µM).
